Test results reported in ChEMBL document CHEMBL1151605, “2-Heterocyclic indole-3-sulfones as inhibitors of HIV-1 reverse transcriptase” (Bioorg Med Chem Lett, 1995).

How the values were obtained:
[1] = biological target: Human immunodeficiency virus type 1 reverse transcriptase (Human immunodeficiency virus 1, UniProt Q72547, K103N); experiment: Inhibitory activity against K103N mutant of HIV-1 reverse transcriptase
MT4 = experiment: Antiviral activity in cell culture tested ex vivo in MT-4 cells using the IIIb strain of HIV-1; type: functional; settings: Homo sapiens, read-out: CIC95
[2] = biological target: Human immunodeficiency virus type 1 reverse transcriptase (Human immunodeficiency virus 1, UniProt Q72547, K103N/Y181C); experiment: Inhibitory activity against K103N/Y181C double mutant of HIV-1 reverse transcriptase

SMILES	IC50 [1] [nM]	IC95 (MT4) [nM]	IC50 [2] [nM]
O=S(=O)(c1ccccc1)c1c(C2=NCCS2)[nH]c2ccc(Cl)cc12	1250	–	–
Cc1cnc(-c2[nH]c3ccc(Cl)cc3c2S(=O)(=O)c2ccccc2)[nH]1	–	12	–
CCc1nc(-c2[nH]c3ccc(Cl)cc3c2S(=O)(=O)c2ccccc2)[nH]c1CC	–	50	–
CCCc1[nH]c(-c2[nH]c3ccc(Cl)cc3c2S(=O)(=O)c2ccccc2)nc1C	–	50	–
Nc1nc(-c2[nH]c3ccc(Cl)cc3c2S(=O)(=O)c2ccccc2)cs1	–	> 200	–
Cc1nc(-c2[nH]c3ccc(Cl)cc3c2S(=O)(=O)c2ccccc2)[nH]c1C	22	12	> 30000
O=S(=O)(c1ccccc1)c1c(-c2ncc[nH]2)[nH]c2ccc(Cl)cc12	–	2	–
O=S(=O)(c1ccccc1)c1c(-c2nc3c([nH]2)CCCC3)[nH]c2ccc(Cl)cc12	–	50	–
